Experimental data from patent US20030130180A1, “Utilization of an aminopeptidase inhibitor” (priority 2000, published 2003).

System: Karpas cells
Assay: Detection of surface protein combinations of the protein network on untreated (V1) and actinonin-treated (V2) Karpas cells
Assay type: cell-based
Details: for V2 no. of cells: actinonin-treated Karpas cells
Text: Principally, detecting of the surface protein combinations may comprise procedural steps of an automated method for determining molecular classes, molecular groups or molecular parts in a solid or liquid object according to DE 197 09 348 C. In these steps, surface proteins may be examined and measured in one and the same object, i.e. in a sample of immune cells and/or tumor cells for example, by sequentially applying reagent solutions Yn (n=1,2,3, . . . N) by means of an automated apparatus, said procedural steps being: I. taking a first reagent solution Y1 from a vessel containing the reagent solution, II. applying said reagent solution Y1 to the object which is on an object slide, III. allowing the reagent solution to react for an automatically set period of time, IV. recording at least one individual labeling pattern of the object previously labeled with said first reagent solution Y1, V. repeating steps I-IV by applying said first reagent solution Y1 or a second reagent solution Y2 or a mixture of said first and second reagent solutions, and VI. repeating steps I to V with further reagent solutions Yn (n=2,3, . . . N) or a mixture thereof and whereby the labeling distribution patterns obtained in each cycle of the method are turned into a complex molecular combination pattern of the object to be examined by computer-aided image overlay. From this combination pattern, information may be gained on the presence of the above mentioned proteins, thus also allowing detection of the surface protein combinations, if the reagent solutions used contain labeled substances directed against the proteins in question. In numerous examinations, it was possible to identify the 30 cell surface proteins already listed above which belong to a specific protein network controlling the early polarization stages of tumor cells and immune cells. In a further examination, surface protein combinations of this protein network of Karpas cells were detected, both in untreated form and after treatment with the aminopeptidase inhibitor actinonin. For this purpose, two groups V1 and V2 of Karpas cells were formed, with the cells of group Vl remaining untreated, while the cells of group V2 were treated with actinonin. Table 2 lists those surface protein combinations which are present both in the actinonin-treated cells and in the untreated cells. However, this table and the further tables 3 and 4 only give examples of 18 of the 30 proteins, with the detected proteins being designated 1 and the non-detected proteins being designated 0. The proteins are continuously numbered 1 to 18, with the nomenclature being notable from table 1. [table] The cell numbers stated in tables 2 to 4 refer to each 1,000 cells examined in groups V1 and V2. Table 3 lists the surface protein combinations which only occur in the untreated Karpas cells and are never found in the actinonin-treated Karpas cells. The number of protein combinations listed in this table 3 amounts to 131. Finally, table 4 exclusively lists those surface protein combinations which occur exclusively in the actinonin-treated Karpas cells. It may be gathered from tables 2 to 4 that, if one examines merely 18 proteins of the 30 proteins, a total of 394 different surface protein combinations will occur, with a total of 334 different combinations occurring in the untreated cells and a total of 263 different combinations being detected in the treated cells.

**Q.** Which results are given for CCCCC[C@H](CC(=O)NO)C(=O)N[C@H](C(=O)N1CCC[C@H]1CO)C(C)C [actinonin]?
**A.** V2 No. of cells In 1/1000 (actinonin-treated Karpas cells (V2), surface protein combination No. 118, binary code 000100010100000000): 0.0 1/1000; V2 No. of cells In 1/1000 (actinonin-treated Karpas cells (V2), surface protein combination No. 119, binary code 000100010001011000): 0.0 1/1000; V2 No. of cells In 1/1000 (actinonin-treated Karpas cells (V2), surface protein combination No. 120, binary code 000100001001001000): 0.0 1/1000; V2 No. of cells In 1/1000 (actinonin-treated Karpas cells (V2), surface protein combination No. 121, binary code 000100000101001000): 0.0 1/1000; V2 No. of cells In 1/1000 (actinonin-treated Karpas cells (V2), surface protein combination No. 122, binary code 000100000101000000): 0.0 1/1000; V2 No. of cells In 1/1000 (actinonin-treated Karpas cells (V2), surface protein combination No. 123, binary code 000100000011000000): 0.0 1/1000; V2 No. of cells In 1/1000 (actinonin-treated Karpas cells (V2), surface protein combination No. 124, binary code 000000011101011000): 0.0 1/1000; V2 No. of cells In 1/1000 (actinonin-treated Karpas cells (V2), surface protein combination No. 125, binary code 000000011000001000): 0.0 1/1000; V2 No. of cells In 1/1000 (actinonin-treated Karpas cells (V2), surface protein combination No. 126, binary code 000000010100000100): 0.0 1/1000; V2 No. of cells In 1/1000 (actinonin-treated Karpas cells (V2), surface protein combination No. 127, binary code 000000010000011000): 0.0 1/1000; V2 No. of cells In 1/1000 (actinonin-treated Karpas cells (V2), surface protein combination No. 128, binary code 000000010000000100): 0.0 1/1000; V2 No. of cells In 1/1000 (actinonin-treated Karpas cells (V2), surface protein combination No. 129, binary code 000000001011000000): 0.0 1/1000; V2 No. of cells In 1/1000 (actinonin-treated Karpas cells (V2), surface protein combination No. 130, binary code 000000000001001100): 0.0 1/1000; V2 No. of cells In 1/1000 (actinonin-treated Karpas cells (V2), surface protein combination No. 131, binary code 000000000001000100): 0.0 1/1000; V2 no. of cells In 1/1OOO, total (actinonin-treated Karpas cells (V2), total over all 203 protein combinations of Table 2): 990.9 1/1OOO; V2 No. of cells In 1/1000, total (actinonin-treated Karpas cells (V2), total over the 131 surface protein combinations of Table 3): 0 1/1000; V2 no. of cells (protein code No. 1, proteins 1-18 binary 000000000000000000): 153.2 1/1OOO; V2 no. of cells (protein code No. 2, proteins 1-18 binary 001000010101001000): 91.9 1/1OOO; V2 no. of cells (protein code No. 3, proteins 1-18 binary 001000010001000000): 57.6 1/1OOO; V2 no. of cells (protein code No. 4, proteins 1-18 binary 000000010001000000): 62.2 1/1OOO; V2 no. of cells (protein code No. 5, proteins 1-18 binary 001000010001001000): 37.9 1/1OOO; V2 no. of cells (protein code No. 6, proteins 1-18 binary 001000010101000000): 44.3 1/1OOO; V2 no. of cells (protein code No. 7, proteins 1-18 binary 001100010101001000): 37.6 1/1OOO; V2 no. of cells (protein code No. 8, proteins 1-18 binary 000000010000000000): 41.8 1/1OOO; V2 no. of cells (protein code No. 9, proteins 1-18 binary 001000010111001000): 31.4 1/1OOO; V2 no. of cells (protein code No. 10, proteins 1-18 binary 001100010111011000): 29.7 1/1OOO; V2 no. of cells (protein code No. 11, proteins 1-18 binary 000000000001000000): 29.3 1/1OOO; V2 no. of cells (protein code No. 12, proteins 1-18 binary 001100010111001000): 24.2 1/1OOO; V2 no. of cells (protein code No. 13, proteins 1-18 binary 001000010011001000): 15.4 1/1OOO; V2 no. of cells (protein code No. 14, proteins 1-18 binary 000000010101000000): 22.3 1/1OOO; V2 no. of cells (protein code No. 15, proteins 1-18 binary 101100010111011000): 17.3 1/1OOO; V2 no. of cells (protein code No. 16, proteins 1-18 binary 001000010111011000): 15.0 1/1OOO; V2 no. of cells (protein code No. 17, proteins 1-18 binary 001000010101011000): 15.5 1/1OOO; V2 no. of cells (protein code No. 18, proteins 1-18 binary 001100010101011000): 9.7 1/1OOO; V2 no. of cells (protein code No. 19, proteins 1-18 binary 000000010101001000): 13.4 1/1OOO; V2 no. of cells (protein code No. 20, proteins 1-18 binary 000000000100000000): 14.5 1/1OOO; V2 no. of cells (protein code No. 21, proteins 1-18 binary 001100010001001000): 6.3 1/1OOO; V2 no. of cells (protein code No. 22, proteins 1-18 binary 001000010011000000): 6.7 1/1OOO; V2 no. of cells (protein code No. 23 (second line so numbered), proteins 1-18 binary 000000000101000000): 11.0 1/1OOO; V2 no. of cells (protein code No. 23, proteins 1-18 binary 001000000001000000): 7.4 1/1OOO; V2 no. of cells (protein code No. 24, proteins 1-18 binary 001000010000000000): 5.7 1/1OOO; V2 no. of cells (protein code No. 25, proteins 1-18 binary 000000000000001000): 7.3 1/1OOO; V2 no. of cells (protein code No. 27, proteins 1-18 binary 010000001100000000): 7.5 1/1OOO; V2 no. of cells (protein code No. 28, proteins 1-18 binary 000000010100000000): 8.9 1/1OOO; V2 no. of cells (protein code No. 29, proteins 1-18 binary 000000010001001000): 7.0 1/1OOO; V2 no. of cells (protein code No. 30, proteins 1-18 binary 001100010011001000): 4.0 1/1OOO; V2 no. of cells (protein code No. 31, proteins 1-18 binary 101000010111011000): 2.8 1/1OOO; V2 no. of cells (protein code No. 32, proteins 1-18 binary 000000001000000000): 6.1 1/1OOO; V2 no. of cells (protein code No. 33, proteins 1-18 binary 001000010111000000): 5.3 1/1OOO; V2 no. of cells (protein code No. 34, proteins 1-18 binary 001000010011011000): 3.2 1/1OOO; V2 no. of cells (protein code No. 35, proteins 1-18 binary 001000010001011000): 4.8 1/1OOO; V2 no. of cells (protein code No. 37, proteins 1-18 binary 010000001100001000): 3.9 1/1OOO; V2 no. of cells (protein code No. 38 (first line so numbered), proteins 1-18 binary 000000001100000000): 5.4 1/1OOO; V2 no. of cells (protein code No. 38 (second line so numbered), proteins 1-18 binary 001000011101001000): 4.3 1/1OOO; V2 no. of cells (protein code No. 39, proteins 1-18 binary 000000010011000000): 2.5 1/1OOO; V2 no. of cells (protein code No. 40, proteins 1-18 binary 001000000101000000): 4.7 1/1OOO; V2 no. of cells (protein code No. 41, proteins 1-18 binary 001100010011011000): 4.0 1/1OOO; V2 no. of cells (protein code No. 42, proteins 1-18 binary 001100010101000000): 0.8 1/1OOO; V2 no. of cells (protein code No. 43, proteins 1-18 binary 001000000000000000): 2.8 1/1OOO; V2 no. of cells (protein code No. 44, proteins 1-18 binary 001000011101000000): 3.7 1/1OOO; V2 no. of cells (protein code No. 45, proteins 1-18 binary 001100010001000000): 0.6 1/1OOO; V2 no. of cells (protein code No. 46, proteins 1-18 binary 001000011001000000): 2.5 1/1OOO; V2 no. of cells (protein code No. 47, proteins 1-18 binary 010000001100001100): 2.2 1/1OOO; V2 no. of cells (protein code No. 48, proteins 1-18 binary 101100010101011000): 2.2 1/1OOO; V2 no. of cells (protein code No. 49, proteins 1-18 binary 001000010100000000): 2.7 1/1OOO; V2 no. of cells (protein code No. 50, proteins 1-18 binary 011000011101001000): 2.4 1/1OOO; V2 no. of cells (protein code No. 51, proteins 1-18 binary 001000011111001000): 2.0 1/1OOO; V2 no. of cells (protein code No. 52, proteins 1-18 binary 001100010001011000): 1.0 1/1OOO; V2 no. of cells (protein code No. 53, proteins 1-18 binary 001000010000001000): 1.0 1/1OOO
